Reference: US8642657B2 (Gruenenthal GmbH, priority 2003, dated 2014)
Read-outs that look alike come from different tables or passages of the source.

Legend:
rat VR1 = target: T1, rat VR1 (Rattus norvegicus, UniProt O35433); assay: [3H]resiniferatoxin (RTX) competition binding assay, VR1-transfected CHO cells
T1 construct: expressed in transfected cells
Experimental: The pUHG102 VR1 plasmid was transfected into CHO cells containing the pTet Off regulatory plasmid (Clontech). In these cells, expression of the VR1 is repressed in the presence of tetracycline but is induced upon removal of the antibiotic. Stable clones were isolated in culture medium containing puromycin (10 μg/mL) and maintained in HAM F12 medium supplemented with tetracycline (1 μg/mL), 5 μg/ml geniticin, 25 mM HEPES, 10% FBS. Cells utilized for assays were grown in culture medium without antibiotic for 48 h before use. Cells were seeded in T75 cell culture flasks in media without antibiotics and grown to approximately 90% confluence. The flasks were then washed with PBS and harvested in 0.25% trypsin, 1 mM EDTA. The cells were pelleted by gentle centrifugation and stored at −20° C. until assay.
Competition Binding Assay
Binding studies with [^3H]resiniferatoxin (RTX) were carried out as described previously with minor modifications (Szallasi et al., 1992). Binding assay mixtures were set up on ice and contained 50-100 pM [^3H]RTX, various concentrations of competing ligands, 0.25 mg/mL BSA (Cohn fraction V), and about 5×10^5 VR1-transfected cells. The final volume was adjusted to 350 μL with DPBS with Ca^2+ and Mg^2+ and 0.25 mg/mL bovine serum albumin. Non-specific binding was determined in the presence of 100 nM nonradioactive RTX. The binding reaction was initiated by transferring the assay mixtures to a 37° C. water bath and was terminated after a 60 min incubation period by cooling the tubes on ice. To reduce non-specific binding, 200 μg/ml α-glycoprotein was added. Membrane-bound RTX was then separated from the free by pelleting the membranes in a Beckman 12 benchtop centrifuge (15 min, maximal velocity), the tips of the tubes containing the pellets were cut off, and the radioactivity was determined by scintillation counting. Equilibrium binding parameters (Ki and cooperativity) were determined by fitting the Hill equation to the measured values with the aid of the program MicroCal Origin 6.0.
Initial stocks were dissolved in DMSO. For the binding assays, compounds were diluted in with DPBS with Ca^2+ and Mg^2+ and 0.25 mg/mL bovine serum albumin. For the calcium uptake assays, compounds were diluted in DMEM with 0.25 mg/mL bovine serum albumin.

[1] = competition with [3H]RTX, rat VR1 in CHO cells, read-out: Ki (nM) Binding Affinity

T1 sequence (O35433 whole entry): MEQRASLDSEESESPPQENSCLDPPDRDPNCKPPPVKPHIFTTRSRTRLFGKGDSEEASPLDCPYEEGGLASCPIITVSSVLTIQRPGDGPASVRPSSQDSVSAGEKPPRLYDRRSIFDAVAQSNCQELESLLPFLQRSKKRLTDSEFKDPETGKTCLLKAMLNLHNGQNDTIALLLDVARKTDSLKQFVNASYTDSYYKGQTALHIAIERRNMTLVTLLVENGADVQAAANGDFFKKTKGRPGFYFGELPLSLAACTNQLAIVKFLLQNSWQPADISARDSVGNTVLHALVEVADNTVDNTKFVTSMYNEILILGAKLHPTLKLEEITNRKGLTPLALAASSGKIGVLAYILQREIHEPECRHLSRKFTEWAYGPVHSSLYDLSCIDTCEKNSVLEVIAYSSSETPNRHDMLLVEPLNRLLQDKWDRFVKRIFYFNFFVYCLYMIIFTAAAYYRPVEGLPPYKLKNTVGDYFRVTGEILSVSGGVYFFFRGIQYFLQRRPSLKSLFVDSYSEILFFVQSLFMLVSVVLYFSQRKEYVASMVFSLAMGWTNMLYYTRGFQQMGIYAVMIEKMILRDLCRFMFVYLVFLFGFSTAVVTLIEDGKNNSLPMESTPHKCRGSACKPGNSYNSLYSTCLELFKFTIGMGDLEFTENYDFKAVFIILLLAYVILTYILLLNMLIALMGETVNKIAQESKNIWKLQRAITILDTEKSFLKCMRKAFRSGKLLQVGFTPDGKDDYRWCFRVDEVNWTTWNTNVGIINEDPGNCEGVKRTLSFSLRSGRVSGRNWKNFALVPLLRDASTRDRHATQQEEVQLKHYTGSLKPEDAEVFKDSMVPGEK

## CC(NC(=S)NC(COC(=O)C(C)(C)C)Cc1ccccc1)c1ccc(NS(C)(=O)=O)cc1 [19-15, N-[(2R)-3-phenyl-1-pivaloyloxy-2-propyl]-N′-[(S)-α-methyl-4-(methylsulfonylamino)benzy]thiourea]
other
  melting point: 61 to 64 °C

## CC(C(=O)NCC=Cc1ccc(Cl)cc1)c1ccc(NS(C)(=O)=O)c(F)c1 (stereo not drawn) [4-20, N-[3-(4-Chlorophenyl)-2-propenyl]-2-[3-fluoro-4-(methylsulfonylamino)phenyl]propionamide]
other
  melting point: 151 to 153 °C

## CC(C(=O)NCc1ccc(C(C)(C)C)cc1)c1ccc(NS(C)(=O)=O)c(C(=O)O)c1 (stereo not drawn) [1-58, N-(4-tert-Butylbenzyl)-2-[3-carboxyl-4-(methylsulfonylamino)phenyl]propionamide]
other
  melting point: 180 to 183 °C

## CC(C(=O)NCc1ccc(C(C)(C)C)cc1)c1ccc(NS(C)(=O)=O)c(N2CCN(C(=O)OC(C)(C)C)CC2)c1 (stereo not drawn) [1-63, N-(4-tert-Butylbenzyl)-2-[3-(N-boc)piperazino-4-(methylsulfonylamino)phenyl]propionamide]
other
  melting point: 103 °C

## CC(C(=O)NCCCc1ccc(Cl)cc1)c1ccc(NS(C)(=O)=O)c(F)c1 (stereo not drawn) [4-19, N-[3-(4-Chlorophenyl)propyl]-2-[3-fluoro-4-(methylsulfonylamino)phenyl]propionamide]
other
  melting point: 141 to 143 °C

## CC(C(=O)NC1CCCc2ccccc21)c1ccc(NS(C)(=O)=O)c(F)c1 (stereo not drawn) [4-13, N-(1,2,3,4-Tetrahydro-1-naphthalenyl)-2-[3-fluoro-4-(methylsulfonylamino)phenyl]propionamide]
other
  melting point: 116 to 117 °C

## CC(C(=O)NCc1ccc(C(C)(C)C)cc1)c1ccc(NS(C)(=O)=O)c(N2CCNCC2)c1 (stereo not drawn) [1-64, N-(4-tert-Butylbenzyl)-2-[3-piperazino-4-(methylsulfonylamino)phenyl]propionamide]
other
  melting point: 92 °C

## COc1cc(C(C)C(=O)NCC(COC(=O)C(C)(C)C)Cc2ccc(C(C)(C)C)cc2)ccc1NS(C)(=O)=O (stereo not drawn) [5-6, N-[2-(4-tert-Butylbenzyl)-3-pivaloyloxypropyl]-2-[3-methoxy-4-(methylsulfonylamino)phenyl]propionamide]
Rat VR1; [1]
  Ki: 24 nM
other
  melting point: 54 to 57 °C

## C[C@H](C(=O)N[C@H](COC(=O)C(C)(C)C)Cc1ccccc1)c1ccc(NS(C)(=O)=O)c(F)c1 [6-2, N—[(S)-1-Benzyl-2-(pivaloyloxy)ethyl]-(S)-2-[3-fluoro-4-(methylsulfonylamino)phenyl]propionamide]
other
  melting point: 125 to 126 °C

## CC(C(=O)NCc1ccc(C(C)(C)C)cc1)c1ccc(NS(C)(=O)=O)c(N2CCOCC2)c1 (stereo not drawn) [1-62, N-(4-tert-Butylbenzyl)-2-[3-morpholino-4-(methylsulfonylamino)phenyl]propionamide]
other
  melting point: 78 °C

## CC(C(=O)NC(c1ccccc1)c1ccccc1)c1ccc(NS(C)(=O)=O)c(F)c1 (stereo not drawn) [4-22, N-Benzhydryl-2-[3-fluoro-4-(methylsulfonylamino)phenyl]propionamide]
Rat VR1; [1]
  Ki: 5860 nM
other
  melting point: 160 to 161 °C

## CC(C(=O)NCc1ccc(C(C)(C)C)cc1)c1ccc(NS(C)(=O)=O)c(C(=O)NCc2ccccc2)c1 (stereo not drawn) [1-60, N-(4-tert-Butylbenzyl)-2-[3-(benzylamino)carbonyl-4-(methylsulfonylamino)phenyl]propionamide]
Rat VR1; [1]
  Ki: 3710 nM
other
  melting point: 79 to 81 °C

## CC(C(=O)NCC=C(c1ccccc1)c1ccccc1)c1ccc(NS(C)(=O)=O)c(F)c1 (stereo not drawn) [4-25, N-(3,3-Diphenyl-2-propenyl)-2-[3-fluoro-4-(methylsulfonylamino)phenyl]propionamide]
other
  melting point: 155 to 157 °C

## CC(NC(=O)C=Cc1ccc(C(C)(C)C)cc1)c1ccc(NS(C)(=O)=O)c(F)c1 (stereo not drawn) [24-3, N-{1-[3-Fluoro-4-(methylsulfonylamino)phenyl]ethyl}-3-(4-tert-butylphenyl)-2-propenamide]
other
  melting point: 154 to 156 °C

## CC(C(=O)NCc1ccc(C(C)(C)C)cc1)c1ccc(NS(C)(=O)=O)c(N2CCCCC2)c1 (stereo not drawn) [1-61, N-(4-tert-Butylbenzyl)-2-[3-piperidino-4-(methylsulfonylamino)phenyl]propionamide]
other
  melting point: 125 °C

## CC(C(=O)NCc1ccc(C(C)(C)C)cc1)c1ccc(NS(C)(=O)=O)c(C(=O)OC(C)(C)C)c1 (stereo not drawn) [1-57, N-(4-tert-Butylbenzyl)-2-[3-(t-butoxycarbonyl)-4-(methylsulfonylamino)phenyl]propionamide]
Rat VR1; [1]
  Ki: 6730 nM
other
  melting point: 75 to 77 °C

## C[C@H](NC(=S)NCc1ccc(C(C)(C)C)cc1)c1ccc(NS(C)(=O)=O)cc1 [16-6, N-(4-t-Butylbenzyl)-N′-{(1S)-1-[4-(methylsulfonylamino)phenyl]ethyl}thiourea]
Rat VR1
  Ki: 3590 nM
other
  melting point: 101 °C

## CC(C(=O)NOCc1ccccc1)c1ccc(NS(C)(=O)=O)c(F)c1 (stereo not drawn) [4-21, N-Benzyloxy-2-[3-fluoro-4-(methylsulfonylamino)phenyl]propionamide]
Rat VR1; [1]
  Ki: 9420 nM
other
  melting point: 182 to 183 °C

## Cc1ccc(CCCNC(=O)C2(c3ccc(NS(C)(=O)=O)c(F)c3)CC2)cc1C [12-5, N-[3-(3,4-Dimethylphenyl)propyl]-1-[3-fluoro-4-(methylsulfonylamino)phenyl]cyclopropanecarboxamide]
other
  melting point: 127 to 128 °C

## CC(NC(=S)NCc1ccc(C(C)(C)C)cc1)c1ccc(NS(C)(=O)=O)c(C(=O)O)c1 (stereo not drawn) [15-5, N-(4-t-Butylbenzyl)-N′-{1-[3-carboxy-4-(methylsulfonylamino)phenyl]ethyl}thiourea]
Rat VR1
  Ki: 2770 nM
other
  melting point: 189 to 192 °C

## CC(C)(C)c1ccc(CNC(=O)C2(c3ccc(NS(C)(=O)=O)c(F)c3)CC2)cc1 [12-8, N-(4-tert-Butylbenzyl)-1-[3-fluoro-4-(methylsulfonylamino)phenyl]cyclopropanecarboxamide]
other
  melting point: 200 to 203 °C

## Cc1ccc(CNC(=O)C(C)c2ccc(NS(C)(=O)=O)c(F)c2)cc1 (stereo not drawn) [4-7, N-(4-Methylbenzyl)-2-[3-fluoro-4-(methylsulfonylamino)phenyl]propionamide]
other
  melting point: 166 °C

## Cc1ccc(C=CCNC(=O)C(C)c2ccc(NS(C)(=O)=O)c(F)c2)cc1C (stereo not drawn) [4-18, N-[3-(3,4-Dimethylphenyl)-2-propenyl]-2-[3-fluoro-4-(methylsulfonylamino)phenyl]propionamide]
other
  melting point: 144 to 146 °C
